Results: patent US20240228482A1, “COMPOUNDS, COMPOSITIONS AND METHODS OF TREATING CANCER” (HOTSPOT THERAPEUTICS, INC., priority 2021, published 2024)

Biological target: T1, CBL-B (Homo sapiens, UniProt Q13191)
T1 construct: GST
Experiment: CBL-B TR-FRET IC50 screening (E1/E2 ubiquitination, Biotin-Ubiquitin, Anti GST-Tb donor / Streptavidin-d2 acceptor)
Format: biochemical
Conditions: CBL-B 10 nM final; 11-point titration from 100 uM; binned A-F; read-out: CBL-B TR-FRET activity IC50

T1 sequence (Q13191 whole entry): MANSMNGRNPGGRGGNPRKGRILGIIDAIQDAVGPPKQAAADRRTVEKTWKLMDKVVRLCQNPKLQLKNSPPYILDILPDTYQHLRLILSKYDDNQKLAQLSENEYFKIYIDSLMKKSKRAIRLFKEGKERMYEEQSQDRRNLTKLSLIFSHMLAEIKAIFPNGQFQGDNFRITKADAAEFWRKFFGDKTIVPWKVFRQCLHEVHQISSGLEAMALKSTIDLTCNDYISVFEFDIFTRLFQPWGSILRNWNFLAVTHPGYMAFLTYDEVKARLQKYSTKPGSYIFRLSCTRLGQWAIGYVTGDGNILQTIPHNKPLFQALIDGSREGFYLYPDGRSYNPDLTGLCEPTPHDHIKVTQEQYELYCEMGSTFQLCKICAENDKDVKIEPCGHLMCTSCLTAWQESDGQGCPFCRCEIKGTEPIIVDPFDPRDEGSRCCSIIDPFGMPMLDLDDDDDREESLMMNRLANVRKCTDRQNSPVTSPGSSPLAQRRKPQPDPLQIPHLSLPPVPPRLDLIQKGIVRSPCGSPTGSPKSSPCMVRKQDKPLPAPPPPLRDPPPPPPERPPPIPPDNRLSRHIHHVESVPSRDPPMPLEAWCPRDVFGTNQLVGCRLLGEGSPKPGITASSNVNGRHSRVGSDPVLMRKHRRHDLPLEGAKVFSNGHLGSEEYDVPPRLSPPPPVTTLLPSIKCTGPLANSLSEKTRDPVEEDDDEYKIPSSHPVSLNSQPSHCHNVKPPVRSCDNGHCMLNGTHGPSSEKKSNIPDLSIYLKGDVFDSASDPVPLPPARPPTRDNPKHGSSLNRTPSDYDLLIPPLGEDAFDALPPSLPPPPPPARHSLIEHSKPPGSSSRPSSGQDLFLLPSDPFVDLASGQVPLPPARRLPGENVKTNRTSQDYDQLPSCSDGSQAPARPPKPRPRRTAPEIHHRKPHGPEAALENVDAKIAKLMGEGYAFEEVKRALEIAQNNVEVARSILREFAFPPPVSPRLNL

C[C@@H](c1cc(C(F)(F)F)c2cn(-c3cccc(C4(Cc5nncn5C)COC4)c3)c(=O)n2c1)N1CCC(F)CC1 [Compound 33]
IC50: < 100 nM

C[C@H](c1cc(C(F)(F)F)c2cn(-c3cccc(C4(Cc5nncn5C)COC4)c3)c(=O)n2c1)N1CCC(F)CC1 [Compound 34]
IC50: < 100 nM

Cn1cnnc1C(F)(F)[C@](C)(F)c1cccc(-n2cc3c(C(F)(F)F)cc(CN4CCC(F)(F)C4)cn3c2=O)c1 [Compound 35]
IC50: 3000 to 10000 nM

Cn1cnnc1C(F)(F)[C@@](C)(F)c1cccc(-n2cc3c(C(F)(F)F)cc(CN4CCC(F)(F)C4)cn3c2=O)c1 [Compound 36]
IC50: 301 to 1000 nM

C[C@H](c1cc(C(F)(F)F)c2cn(-c3cccc(C4(Cc5nncn5C)COC4)c3)c(=O)n2c1)N1CC2CC2C1 (stereo partly drawn) [Compound 37]
IC50: < 100 nM

CN(CCO)C(=O)c1cc(C(F)(F)F)c2cn(-c3cccc(C4(Cc5nncn5C)COC4)c3)c(=O)n2c1 [Compound 38]
IC50: 301 to 1000 nM

C[C@@H](c1cc(C(F)(F)F)c2cn(-c3cccc(C4(Cc5nncn5C)COC4)c3)c(=O)n2c1)N1CC[C@H](F)C1 [Compound 39]
IC50: < 100 nM

C[C@H](c1cc(C(F)(F)F)c2cn(-c3cccc(C4(Cc5nncn5C)COC4)c3)c(=O)n2c1)N1CC[C@H](F)C1 [Compound 40]
IC50: < 100 nM

C[C@@H](c1cc(C(F)(F)F)c2cn(-c3cccc(C4(Cc5nncn5C)COC4)c3)c(=O)n2c1)N1CCC(C)(F)CC1 [Compound 41]
IC50: < 100 nM

C[C@H](c1cc(C(F)(F)F)c2cn(-c3cccc(C4(Cc5nncn5C)COC4)c3)c(=O)n2c1)N1CCC(C)(F)CC1 [Compound 42]
IC50: < 100 nM

Cn1cnnc1[C@@H]1C[C@@H]1c1cccc(-n2cc3c(C(F)(F)F)cccn3c2=O)c1 [Compound 43]
IC50: 3000 to 10000 nM

Cn1cnnc1[C@@H](F)C1(c2cccc(-n3cc4c(C(F)(F)F)cc(CN5CCC(F)CC5)cn4c3=O)c2)COC1 [Compound 44]
IC50: < 100 nM

C[C@H](Cc1nnc[nH]1)c1cccc(-n2cc3c(C(F)(F)F)cccn3c2=O)c1 [Compound 46]
IC50: 1000 to 3000 nM

C[C@@H](Cc1nnc[nH]1)c1cccc(-n2cc3c(C(F)(F)F)cccn3c2=O)c1 [Compound 47]
IC50: > 10000 nM

C[C@H]1CCCN(Cc2cc(C(F)(F)F)c3cn(-c4cccc(C5(Cc6nncn6C(F)F)COC5)c4)c(=O)n3c2)C1 [Compound 48]
IC50: < 100 nM

COC1CCN(Cc2cc(C(F)(F)F)c3cn(-c4cccc(C5(Cc6nncn6C)COC5)c4)c(=O)n3c2)CC1 [Compound 49]
IC50: < 100 nM

COCCNCc1cc(C(F)(F)F)c2cn(-c3cccc(C4(Cc5nncn5C)COC4)c3)c(=O)n2c1 [Compound 50]
IC50: < 100 nM

COCCN(C)Cc1cc(C(F)(F)F)c2cn(-c3cccc(C4(Cc5nncn5C)COC4)c3)c(=O)n2c1 [Compound 51]
IC50: 301 to 1000 nM

CC(Cc1nncn1C)c1ccc(F)c(-n2cc3c(C(F)(F)F)cccn3c2=O)c1 (stereo not drawn) [Compound 52]
IC50: 3000 to 10000 nM

Cn1cnnc1CC1(c2cccc(-n3cc4c(C(F)(F)F)cc(CN5CCC(O)CC5)cn4c3=O)c2)COC1 [Compound 53]
IC50: < 100 nM

C[C@@H](c1cc(C(F)(F)F)c2cn(-c3cccc(C4([C@H](F)c5nncn5C)COC4)c3)c(=O)n2c1)N1CCC2(CC2)C1 [Compound 54]
IC50: 100 to 300 nM

C[C@H](c1cc(C(F)(F)F)c2cn(-c3cccc(C4([C@@H](F)c5nncn5C)COC4)c3)c(=O)n2c1)N1CCC2(CC2)C1 [Compound 55]
IC50: < 100 nM

C[C@@H](c1cc(C(F)(F)F)c2cn(-c3cccc(C4([C@@H](F)c5nncn5C)COC4)c3)c(=O)n2c1)N1CCC2(CC2)C1 [Compound 56]
IC50: < 100 nM

C[C@H](c1cc(C(F)(F)F)c2cn(-c3cccc(C4([C@H](F)c5nncn5C)COC4)c3)c(=O)n2c1)N1CCC2(CC2)C1 [Compound 57]
IC50: < 100 nM

CN1CC=C(c2cc(C(F)(F)F)c3cn(-c4cccc(C5(Cc6nncn6C)COC5)c4)c(=O)n3c2)CC1 [Compound 58, 2-(3-[3-[(4-methyl-1,2,4-triazol-3-yl)methyl]oxetan-3-yl]phenyl)-6-(1-methyl-3,6-dihydro-2H-pyridin-4-yl)-8-(trifluoromethyl)imidazo[1,5-a]pyridin-3-one]
IC50: 1000 to 3000 nM

Cn1cnnc1CC1(c2cccc(-n3cc4c(C(F)(F)F)cc(CN5CC(O)C5)cn4c3=O)c2)COC1 [Compound 61]
IC50: 100 to 300 nM

CN1CCC=C(c2cc(C(F)(F)F)c3cn(-c4cccc(C5(Cc6nncn6C)COC5)c4)c(=O)n3c2)C1 [Compound 63]
IC50: 100 to 300 nM

Cn1cnnc1CC1(c2cccc(-n3cc4c(C(F)(F)F)cc(C5=CCNC5)cn4c3=O)c2)COC1 [Compound 64]
IC50: 1000 to 3000 nM

Cn1cnnc1CC1(c2cccc(-n3cc4c(C(F)(F)F)cc(C5CCN(C(=O)OC(C)(C)C)C5)cn4c3=O)c2)COC1 (stereo not drawn) [Compound 65]
IC50: 301 to 1000 nM

Cn1cnnc1CC1(c2cccc(-n3cc4c(Cl)cc(CN5CC[C@H](F)C5)cn4c3=O)c2)COC1 [Compound 66]
IC50: < 100 nM

C=C(C)C[C@H](c1cccc(-n2cc3c(C(F)(F)F)cc(CN4CCC[C@H](C)C4)cn3c2=O)c1)c1nncn1C [Compound 69]
IC50: < 100 nM

Cc1cccn2c(=O)n(-c3cccc(C4(Cc5nncn5C)COC4)c3)cc12 [Compound 70]
IC50: 301 to 1000 nM

Cn1cnnc1CC1(c2cccc(-n3cc4ccccn4c3=O)c2)COC1 [Compound 71]
IC50: 100 to 300 nM

C[C@@H]1CN(Cc2cc(C(F)(F)F)c3cn(-c4cccc(C5(Cc6nncn6C)COC5)c4)c(=O)n3c2)CCC1(F)F [Compound 72]
IC50: 301 to 1000 nM

C[C@H]1CN(Cc2cc(C(F)(F)F)c3cn(-c4cccc(C5(Cc6nncn6C)COC5)c4)c(=O)n3c2)CCC1(F)F [Compound 73]
IC50: 3000 to 10000 nM

C[C@H]1CCCN(Cc2cc(C(F)(F)F)c3cn(-c4cccc(C5(c6nncn6C)CC6(CC6)C5)c4)c(=O)n3c2)C1 [Compound 74]
IC50: 100 to 300 nM

Cn1cnnc1CC1(c2cccc(-n3cc4c(C(F)(F)F)cc(CNCCO)cn4c3=O)c2)COC1 [Compound 75]
IC50: 100 to 300 nM

CN(CCO)Cc1cc(C(F)(F)F)c2cn(-c3cccc(C4(Cc5nncn5C)COC4)c3)c(=O)n2c1 [Compound 76]
IC50: 100 to 300 nM

COCCOCc1cc(C(F)(F)F)c2cn(-c3cccc(C4(Cc5nncn5C)COC4)c3)c(=O)n2c1 [Compound 77]
IC50: < 100 nM

CN1CC=C(c2cc(C(F)(F)F)c3cn(-c4cccc(C5(Cc6nncn6C)COC5)c4)c(=O)n3c2)C1 [Compound 78]
IC50: < 100 nM

CN(C)C1CC=C(c2cc(C(F)(F)F)c3cn(-c4cccc(C5(Cc6nncn6C)COC5)c4)c(=O)n3c2)CC1 (stereo not drawn) [Compound 79]
IC50: < 100 nM

Cn1cnnc1CC1(c2cccc(-n3cc4c(C(F)(F)F)cc(C5CCNC5)cn4c3=O)c2)COC1 (stereo not drawn) [Compound 80]
IC50: 301 to 1000 nM

CN1CCC(c2cc(C(F)(F)F)c3cn(-c4cccc(C5(Cc6nncn6C)COC5)c4)c(=O)n3c2)C1 (stereo not drawn) [Compound 83]
IC50: > 10000 nM

CN1CCCC(c2cc(C(F)(F)F)c3cn(-c4cccc(C5(Cc6nncn6C)COC5)c4)c(=O)n3c2)C1 (stereo not drawn) [Compound 84]
IC50: > 10000 nM

C[C@H]1CCCN(Cc2cc(C(F)(F)F)c3cn(-c4cccc([C@H](c5nncn5C)C5CCC5)c4)c(=O)n3c2)C1 [Compound 85]
IC50: < 100 nM

C[C@H]1CCCN(Cc2cc(C(F)(F)F)c3cn(-c4cccc([C@@H](c5nncn5C)C5CCC5)c4)c(=O)n3c2)C1 [Compound 86]
IC50: 301 to 1000 nM

CN(C)C1CCC(c2cc(C(F)(F)F)c3cn(-c4cccc(C5(Cc6nncn6C)COC5)c4)c(=O)n3c2)CC1 (stereo not drawn) [Compound 87]
IC50: 100 to 300 nM

COc1cc(C(F)(F)F)c2cn(-c3cccc(C4(Cc5nncn5C)COC4)c3)c(=O)n2c1 [Compound 88]
IC50: 1000 to 3000 nM

Cn1cnnc1CC1(c2cccc(-n3cc4c(C(F)(F)F)cc(C#CCN5CCCC5)cn4c3=O)c2)COC1 [Compound 89]
IC50: 100 to 300 nM

Cn1cnnc1CC1(c2cccc(-n3cc4c(C(F)(F)F)cc(COCCO)cn4c3=O)c2)COC1 [Compound 90]
IC50: 100 to 300 nM

O=c1n(-c2cccc(C3(Cc4nncn4C(F)F)COC3)c2)cc2c(C(F)(F)F)cc(CN3CCC4(CC4)C3)cn12 [Compound 91]
IC50: < 100 nM

Cn1cnnc1CC1(c2cccc(-n3cc4c(C(F)(F)F)cc(CCC(=O)O)cn4c3=O)c2)COC1 [Compound 92]
IC50: 301 to 1000 nM

Cn1cnnc1CC1(c2cccc(-n3cc4c(C(F)(F)F)cc(Cl)cn4c3=O)c2)COC1 [Compound 93]
IC50: 100 to 300 nM

Cn1cnnc1CC1(c2cccc(-n3cc4c(C=O)cccn4c3=O)c2)COC1 [Compound 94]
IC50: 3000 to 10000 nM

Cn1cnnc1CC1(c2cccc(-n3cc4c(C(F)F)cccn4c3=O)c2)COC1 [Compound 95]
IC50: 301 to 1000 nM

Cn1cnnc1CC1(c2cccc(-n3cc4c(C(F)(F)F)cc(OCC(C)(C)O)cn4c3=O)c2)COC1 [Compound 98]
IC50: 100 to 300 nM

Cn1cnnc1CC1(c2cccc(-n3cc4c(C(F)(F)F)cc(C(C)(C)O)cn4c3=O)c2)COC1 [Compound 101]
IC50: 1000 to 3000 nM

[2H]C([2H])([2H])n1cnnc1C1(c2cccc(-n3cc4c(C(F)(F)F)cc(CN5CCC[C@H](C)C5)cn4c3=O)c2)CC2(CC2)C1 [Compound 102]
IC50: < 100 nM

Cn1cnnc1C1(c2cccc(-n3cc4c(C(F)(F)F)cc(Br)cn4c3=O)c2)CC2(CC2)C1 [Compound 103]
IC50: 100 to 300 nM

Cn1cnnc1CC1(c2cccc(-n3cc4c(C(F)(F)F)cc(F)cn4c3=O)c2)COC1 [Compound 104]
IC50: 100 to 300 nM

COc1cc(-n2cc3c(C(F)(F)F)cc(Br)cn3c2=O)cc(C2(Cc3nncn3C)COC2)c1 [Compound 105]
IC50: 100 to 300 nM

Cn1cnnc1CC1(c2cccc(-n3cc4c(C(F)(F)F)cc(CN5CCNC(=O)C5)cn4c3=O)c2)COC1 [Compound 106]
IC50: 100 to 300 nM

COc1cc(-n2cc3c(C(F)(F)F)cc(CN4CCC[C@H](C)C4)cn3c2=O)cc(C2(Cc3nncn3C)COC2)c1 [Compound 107]
IC50: < 100 nM

COc1cc(-n2cc3c(C(F)(F)F)cc(CN4CCC5(CC5)C4)cn3c2=O)cc(C2(Cc3nncn3C)COC2)c1 [Compound 108]
IC50: < 100 nM

COc1cc(-n2cc3c(C(F)(F)F)cc(CN4CC[C@H](F)C4)cn3c2=O)cc(C2(Cc3nncn3C)COC2)c1 [Compound 109]
IC50: < 100 nM

COc1cc(-n2cc3c(C(F)(F)F)cc(CN4CC5(CC5)C4)cn3c2=O)cc(C2(Cc3nncn3C)COC2)c1 [Compound 110]
IC50: < 100 nM
